Experiment [1] has as its system KB cells. In words: cells. It is filed as cell-based, human. The conditions noted are these: Homo sapiens; [3H]dThd incorporation, KB cells; read-out: I50 on [3H]dThd incorporation. How it is done: KB or HFF cells were planted using a Costar Transplate-96 (Costar, Cambridge, Mass.) in Costar 96-well cluster dishes at a concentration of 10,000 to 12,000 cells per well. Wells were suspended in 200 μl of medium [MDM(H) plus 0.7 gm/liter NaCHO3 supplemented with 10% calf serum] per well. After incubation of 16 to 24 hours at 37° C. in a humidified atmosphere of 4% CO2 in air, […] of medium was removed per well. One-hundred μl of medium with or without compounds in twice their final concentrations was added to each well using a Titertek Multichannel Pipette. Final concentrations of compounds ranged from 0.1 to 320 μM. Fifty μl of medium containing radioactive precursors also was added to each well to give a final concentration to 1 to 3 μCi/ml of labeled precursor. [^3 H]Thd was diluted with unlabeled dThd to give a final concentration of 3 or 6 μM.
Logarithmic cell growth occurred during this time with continual uptake of labeled precursors. At the end of the incubation period, cells were individually harvested from each well using a Skatron Cell harvester (Skatronh, Inc., Sterling, Va.). Cultures for individual wells were harvested onto filter paper and washed free of unincorporated label with nine sequential washes with 5% trichloroacetic acid, nine washes with water, and nine with ethanol using the Skatron unit. Filters were dried, circles from individual cultures were punched from the filter mat and placed into mini-vials. Liquid scintillation solution was added, and radioactivity determined in a Beckman model LS8100 liquid scintillation spectrometer. All samples were counted for 2.0 minutes each, with three rounds of counting. Counts per minute were determined following the application of statistical methods to eliminate count rates which fell outside distribution limits defined by Chauvenet's rejection criterion.
All analyses were performed in triplicate. That is, three culture wells were used per time point, radioactive precursor, and drug concentration in all experiments. Results from triplicate assays were converted to percent of control and plotted as log dose-response curves from which 50% inhibitor (I50) concentrations were interpolated. Three concentrations of vidarabine were included on all plates as a positive control.
Dose-response relationships were used to compare drug effects. These were constructed by linearly regressing the percent inhibition of parameters derived in the preceding sections against log drug concentrations. The 50% inhibitory (I50) concentrations were calculated from the regression lines using the methods described by Goldstein. See Goldstein, A., Biostatistics: An Introductory Text, MacMillan, N.Y., 1964, pp. 156-161. Along with the I50 concentration for visual cytotoxicity, the averaged I50 concentrations are compared to I50 concentrations for inhibition for HCMV or HSV-1 replication. Compounds for which the ratio of cytotoxicity I50 concentrations to antiviral I50 concentrations (in vitro therapeutic index) were greater than 10, were considered for further study.

Experiment [2] has as its system KB cells. In words: Growth of KB cells (population doubling times). It is filed as cell-based, human. The note with it: for Population Doubling time: KB cells, control 23 hr. The method, then:
(§1) Population doubling times and cell viability were measured in uninfected HFF and/or KB cells. Cells were planted in replicate 6-well plastic tissue culture dishes or in 25 cm^2 flasks as described above in part 1. Following an incubation period during which cells attached to the substrate, medium was decanted, the cell sheet rinsed once with HBS, and fresh medium added. The medium consisted of MEM(E) with 1.1 gm NaHCO3 /liter and 10% fetal bovine or calf serum plus appropriate log or half-log concentrations of drug. After additional periods of incubation from 1 to 72 hours at 37° C., cells were harvested by means of 0.05% trypsin plus 0.02% EDTA in a HEPES-buffered salt solution. Cells were enumerated using either a Coulter counter or a hemocytometer and viability determining using trypsan blue dye exclusion.
In more extensive cytotoxicity testing, the halogenated compounds were tested for effects on the growth of KB cells. Populations doubling times were calculated from the logarithmic portions of growth curves and were as follows: […]

In experiment [3] the test system is HSV-1 HF strain. In words: HSV-1 reduction assay, HF strain. It counts as cell-based, herpes simplex virus type 1 (HF strain). The conditions noted are these: Human alphaherpesvirus 1; read-out: I50 with HF strain of HSV-1. From the text: The 148 strain of HSV-1 was used in most experiments and was provided by Dr. T. W. Schafer of Schering corporation. The HF strain of HSV-1 was used in selected experiments and was obtained from Dr. G. H. Cohen, University of Pennsylvania. The Towne strain, plaque-purified isolate Po, of HCMV was a gift of Dr. Mark Stinski, University of Iowa.
HSV-1 was titered using monolayer cultures of BSC-1 cells. Cells were planted at 3×10^5 cells/well using 6-well cluster dishes. MEM(E) supplemented with 10% fetal bovine serum was employed as medium. After 22-24 hours, cells were 90% confluent and were inoculated in triplicate using at least three ten-fold dilutions with 0.2 ml of the virus suspension to be assayed and incubated in a humidified 4% CO2 […] atmosphere for one hour to permit viral adsorption. Following virus adsorption, the cell sheet was overlayed with 5 ml of MEM(E) with 5% serum plus 0.5% methocel (4000 CPS) and incubated an additional two to three days. Cells were fixed and stained with 0.1% crystal violet in 20% methanol and macroscopic plaques enumerated.
Plaque reduction experiments were HSV-1 were performed using monolayer cultures of BSC-1 cells. The assay was performed exactly as described above except that the 0.2 ml virus suspension contained approximately 100 p.f.u. of HSV-1. Compounds to be tested were dissolved in the overlay medium at concentrations usually ranging from 0.1 to 100 μM in half-or-one logarithm10 dilutions. Titer reduction assays were performed by planting KB cells in 25 cm^2 plastic tissue culture flasks 10 to 24 hours prior to infection. At the onset of experiments, logarithmically growing replicate monolayer cultures were 60 to 80% confluent and contained 2.5 to 4.5×10^6 cells/flask. Medium was decanted and the cultures were infected with 2 to 10 p.f.u. of HSV-1 per cell. Virus was contained in 1.0 ml of VGM supplemented with 5% fetal bovine serum. After a 1 hour adsorption period at […], the cell sheet was rinsed twice with 2 ml of VGM without serum to remove unadsorbed virus and 5 ml of VGM containing drugs at three to five selected concentrations added in duplicate. Following an 18- to 22-hour incubation at 37° C., infected monolayers were treated with EDTA-trypsin to suspend the cells; aliquots were removed, subjected to three cycles of freezing and thawing, and stored at -76° C. for subsequent virus assay. Virus was titered on BSC-1 cells as described above.
Dose-response relationships were used to compare drug effects. These were constructed by linearly regressing the percent inhibition of parameters derived in the preceding sections against log drug concentrations. The 50% inhibitory (I50) concentrations were calculated from the regression lines using the methods described by Goldstein. […]

For experiment [4], the system named is HFF cells. In words: Growth of HFF cells. It is filed as cell-based, human. The conditions noted are these: for HFF population doublings in 70 hours: 100 μM, control two doublings. How it is done: as §1
The effect of these compounds on the growth of human diploid fibroblasts (HFF cells) was less pronounced. During a 70-hour incubation, control cells underwent two doublings. […] A 100 μM concentration reduced the number of cells by less than 10%.

[5] abbreviates: comparison with UMJD 102 / UMJD 183.

The record followed here is US4968686A, “Acyclic pyrrolo [2,3-d]pyrimidine analogs as antiviral agents” (The Regents of The University of Michigan, priority 1989, dated 1990).

Take `Nc1ncnc2c1c(Cl)cn2COC(CO)CO` [UMJD 186, 4-amino-5-chloro-7-[(1,3-dihydroxy-2-propoxy)-methyl]pyrrolo[2,3-d]pyrimidine]: in experiment [1], the IC50 was determined as 28 µM.
Regarding `OCC(CO)OCn1cc(Br)c2c(NO)ncnc21` [UMJD 299, 4-hydroxylamino-5-bromo-7-[(1,3-dihydroxy-2-propoxy)methyl]pyrrolo[2,3-d]pyrimidine], in experiment [2] (10 μM), the “KB cell growth rate (in words)” value was “nearly control rates”. Besides, the “effect on KB cell growth (in words)” value in experiment [2] (setting [5]) was “considerably lesser effects on cell growth”.
As for `Nc1ncnc2c1c(Br)cn2COCCO` [UMJD 102, 4-Amino-5-bromo-7-(2-hydroxyethoxymethyl)pyrrolo[2,3-d]-pyrimidine], the entries for the “Population Doubling time” value in experiment [2] (0.1 μM), in experiment [2] (1.0 μM) and in experiment [2] (10.0 μM) were 30 h, 43 h and 84 h, respectively. For the same compound, in experiment [2] (Homo sapiens, KB, read-out: lowest concentration that inhibited growth of KB cells), the minimal effective concentration is 0.1 µM. Moreover, the “effect on KB cell growth (in words)” value in experiment [2] (setting [5]) is recorded as “cytostatic”. Moreover, the IC50 in experiment [3] stood at 28 µM; in experiment [1] it was 0.13 µM. For the same compound, the “effect on growth of HFF cells relative to UMJD 100 (in words)” value in experiment [4] is given as “more pronounced”. In addition, in experiment [4] (70 hours), the “HFF population doublings in 70 hours” value is reported as “one population doubling”.
With `Nc1ncnc2c1c(Cl)cn2COCCO` [UMJD 100, 4-Amino-5-chloro-7-(2-hydroxyethoxymethyl)pyrrolo[2,3-d]-pyrimidine], the “Population Doubling time” value in experiment [2] (1.0 μM) was determined as 25 h; in experiment [2] (10.0 μM) it was 25 h; in experiment [2] (100.0 μM), 27 h. Moreover, in experiment [2] (100 μM), the “effect on KB cell growth (in words)” value is listed as “only a minor extent”. The IC50 in experiment [3] was over 100 µM; in experiment [1], 0.82 µM. Also, the “effect on number of HFF cells present at 70 hours (in words)” value in experiment [4] (10 or 32 μM, 70 hours) is listed as “no decrease in the number of cells”.
For the compound `Nc1nc2c(ncn2COCCO)c(=O)[nH]1` [Acyclovir, reference compound], the IC50 in experiment [3] was found to be 36 µM.
In the case of `Nc1ncnc2c1c(Br)cn2COC(CO)CO` [UMJD 183, 4-amino-5-bromo-7-[(1,3-dihydroxy-2-propoxy)methyl]-pyrrolo[2,3-d]pyrimidine], the “duration of KB cell growth in presence of drug before slowing or stopping” value in experiment [2] was “up to 20 hours”. In experiment [2] (setting [5]), the “effect on KB cell growth (in words)” value is listed as “inhibited, but to a lesser extent”. The “KB cell growth for 50 hours (in words)” value in experiment [2] (up to 32 μM, 50 hours) is recorded as “at a reduced rate”.
Take `Nc1ncnc2c1c(I)cn2COCCO` [UMJD 104, 4-Amino-5-iodo-7-(2-hydroxyethoxymethyl)pyrrolo[2,3-d]-pyrimidine]: the “Population Doubling time” value is 26 h in experiment [2] (0.1 μM), 25 h in experiment [2] (1.0 μM) and 30 h in experiment [2] (10.0 μM). Also, the IC50 in experiment [3] was determined as 54 µM; in experiment [1], 1.2 µM. Besides, the “effect on growth of HFF cells relative to UMJD 100 (in words)” value in experiment [4] was “more pronounced”. For the same compound, the “HFF population doublings in 70 hours” value in experiment [4] (70 hours) was “one population doubling”.
